We go through six compounds from patent US20080026003A1, “Methods for inhibiting pain” (The General Hospital Corporation, priority 2000, published 2008).

“Also recorded” adds a separate entry of the source.

The test system of assay [1] is Cox-2 mRNA. Briefly: Cox-2 mRNA in lumbar spinal cord after intraplantar CFA (RNase protection assay). Type of assay: in vivo, rat.
Procedure: The extent of Cox-2 induction in the central nervous system following unilateral hindpaw inflammation evoked by complete Freund's adjuvant (CFA) was investigated. CFA (100 μl, Sigma) was injected into the left rat hindpaw of rats anaesthetized with 2% halothane. The level of Cox-2 mRNA was measured using RNase protection assays which were performed on total RNA extracts from spinal cord samples using the RPA III kit (Ambion). […] At least two assays were used for each observation, and the fold change in Cox-2 mRNA levels was determined with respect to a β-actin loading control.
To further support the role of central IL-1β in induction of Cox-2, the effect of inhibiting IL-1β activity was determined.
Assay [2] relates to Cox-2 mRNA. Nature of the assay: Cox-2 mRNA in isolated spinal cord slice in vitro. Type of assay: cell-based, rat. As to conditions: 200 ng/ml; in vitro spinal cord slice. The protocol:
Two mechanisms may contribute to central Cox-2 induction in response to peripheral inflammation: 1) sensory inflow from nerve fibers innervating the inflamed hindpaw or 2) circulating pro-inflammatory cytokines. To determine whether primary sensory neuron activity increases central Cox-2, an isolated adult rat spinal cord slice preparation with an attached dorsal root was analyzed (FIG. 5A). To prepare this spinal cord slice, the lumbar spinal cord from an adult rat under urethane anesthesia was removed and immersed in cold Kreb's solution. A 700-μm-thick transverse slice with attached L4 dorsal root (15-20 mm) was prepared and perfused with Kreb's solution saturated with 95% O2 and 5% CO2 at 36-37° C. (Baba et al., J Neurosci 19:859, 1999). The L4 dorsal root was electrically stimulated for 30 minutes using a suction electrode at 20 μA (0.05 ms, 50 Hz) for Aβ-fibers, 100 μA (0.05 ms, 50 Hz) for […] 1000 μA (0.5 ms, 50 Hz) for C-fibers. The slices were perfused with Kreb's solution for two hours before electrical stimulation, and for three hours after stimulation.

Another assay deals with PGE2. Nature of the assay: PGE2 levels in cerebrospinal fluid after CFA inflammation (enzyme-immunoassay). It is filed as in vivo, rat. As to conditions: for decrease of PGE2 levels in the cerebrospinal fluid: intrathecal.
In assay [3] the test system is CFA inflamed hindpaw of rats. Nature of the assay: Mechanical (von Frey) and thermal (radiant heat) sensitivity after Cox-2 or caspase-1 inhibitor.
Procedure: Thermal sensitivity was assessed by applying a beam of radiant heat and recording the paw withdrawal latency (Decosterd et al., supra).
Assay [4] relates to CFA-induced inflammatory pain in rats. As to conditions: non-inflamed animals; Ji et al., 1999; cited from earlier work.
The next assay has as its system p-p38 and VR1. Nature of the assay: p-p38 and VR1 in DRG after intrathecal NGF. It is filed as in vivo, rat. As to conditions: for NGF-induced VR1 increase: 1 μg co-administered with NGF twice a day for three days. Here is the method:
L4 and L5 DRGs and L4-L5 spinal cord segments were dissected. DRG and transverse spinal cord sections (20 μm) were cut and processed for immunohistochemistry using the previously described ABC method (Ji et al., Nat. Neurosci. 2:1114-1119, 1999), with polyclonal anti-p38 and phospho-p38 (1:300, New England BioLabs) and polyclonal anti-VR1 antibodies (1:5000, Kindly provided by Glaxso Welcome and Dr. David Julius). For colocalization studies, immunofluorescence was performed to analyze the double staining between antibodies reactive with phosphop38 (anti-rabbit, 1:300) and VR1 (anti-guinea pig, 1:3000, Neuromics) or P2X3 (anti-guinea pig, 1:3000, Neuromics) or NeuN (anti-mouse, 1:3000, Chemicon). This double immunofluorescence was performed as previously described (Ji et al., 2001, supra). Briefly, DRG and spinal sections were incubated with a mixture of two primary antibodies overnight at 4° C. and then incubated with a mixture of FITC- and CY3-congugated secondary antibodies (1:300, Jackson immunolab) for two hours at room temperature. A Tyramide Signal Amplification (TSA, NEN) kit was used to perform double staining with two polyclonal rabbit antibodies (phospho p38 and TrkA) as previously reported (Amaya et al., Mol. Cell Neurosci 15:331-342, 2000). The images of immunostained DRG sections were captured with a CCD camera. The intensity of immunostaining was measured with computer-assisted software (IP lab), and the number of immunoreactive neuronal profiles was counted in a blinded fashion. […] Instead, the results provide a way to evaluate differences in staining levels between control and treated animals. To prevent variations due to experimental conditions, the control and treated DRG sections were mounted on the same slides and processed under the same conditions. […] As previously reported (Ji et al., 1999, supra), every fifth section was picked from a series of consecutive DRG sections (20 μm), and four sections were included for each DRG. The percentage of immnunoreactive neuronal profiles=(number of positive stained neuronal profiles/number of total neuronal profiles)×100.
After CFA-induced inflammation, NGF is produced in the inflamed paw tissue and is retrogradely transported to the cell body of DRG neurons. NGF is critical for gene expression in DRG neurons and plays a major role in inflammatory pain (Lindsay et al., Nature 337: 362-364, 1989; and Woolf et al., Neuroscience 62:327-331, 1994). […] To determine whether NGF is required for the inflammation-induced activation of p38 and upregulation of VR1, NGF antiserum (i.p., 5 μl/g body weight, 84 mg/ml) was injected to neutralize endogenous NGF. […] Intrathecal injection of NGF (2 μg in 10 μl, twice a day for three days, Boeringer) increased both p-p38 levels and VR1 levels in DRG neurons. […]

In the next assay the test system is p38 and ERK. Briefly: MAP kinase phosphorylation in primary DRG neuron cultures. As to conditions: culture. It is filed as cell-based, rat. The protocol:
To investigate the intracellular signaling pathway that leads to the increase in Cox-2 mRNA in the DRG neurons following treatment with IL-1β, the activation of the NFκ-B transcription factor and members of the MAP kinase family in primary DRG neurons was studied. […] Phosphorylated p38 and ERK were visualized by standard Western blot analysis and immunohistochemistry 30 minutes after administration of 10 ng/ml IL-1β to the culture medium (FIG. 12).
After CFA-induced inflammation, NGF is produced in the inflamed paw tissue and is retrogradely transported to the cell body of DRG neurons. NGF is critical for gene expression in DRG neurons and plays a major role in inflammatory pain (Lindsay et al., Nature 337: 362-364, 1989; and Woolf et al., Neuroscience 62:327-331, 1994). […] To determine whether NGF is required for the inflammation-induced activation of p38 and upregulation of VR1, NGF antiserum (i.p., 5 μl/g body weight, 84 mg/ml) was injected to neutralize endogenous NGF. […] Intrathecal injection of NGF (2 μg in 10 μl, twice a day for three days, Boeringer) increased both p-p38 levels and VR1 levels in DRG neurons. […] To test whether NGF acts via p38 to upregulate VR1, the p38 inhibitor SB203580 (1 μg) was co-administrated with NGF (twice a day for three days).

A further assay has as its system CFA-injected paws. Nature of the assay: CFA-induced paw swelling (paw thickness). It is filed as in vivo, rat. As to conditions: intrathecal infusion by osmotic pump started before CFA. The protocol:
(§1) CFA-induced inflammatory pain is characterized by hyperalgesia (i.e., an increased sensitivity to a noxious stimulus) and allodynia (i.e., generation of pain by a normally innocuous stimulus). To examine the involvement of p38 activation in the DRG in inflammatory pain, 10 μl of a specific p38 inhibitor, SB 203580 (1 μg, Calbiochem), was administered into the intrathecal space (close to L4 DRG level) via an intrathecal PP10 catheter. Although p38 inhibitors have an anti-inflammatory action when delivered systematically, localized intrathecal drug administration should not affect inflammation in the paw. To obtain a sustained and stable drug infusion, an Alzet osmotic pump (seven day pump, 0.5 μl/hour) was filled with the p38-inhibitor SB 203580 (1 μg/μl) in saline, and the associated catheter of the pump was implanted intrathecally sixteen hours before CFA injection. Saline was used as vehicle control for the osmotic pump.

Assay [5] has as its system CFA-induced inflammatory pain in rats. Nature of the assay: Heat and mechanical sensitivity after intrathecal p38 inhibitor. As to conditions: intrathecal 1 μg 24 hours after CFA treatment; tested 0.5, 3 and 24 hours. It is filed as in vivo, rat.
The test system is the same in assay [6]. The assay is described as above. It is filed as in vivo, rat. As to conditions: for late phase of inflammation-induced heat hyperalgesia: 24 and 48 hours after CFA. Here is the method:
as §1
To test whether the p38 inhibitor affects basal pain sensitivity, heat and mechanical sensitivity were measured, as previously described (Ji et al., 2001, supra). Briefly, animals were habituated and basal pain sensitivity was tested before drug administration or surgery. Mechanical withdrawal threshold on the plantar surface of the hindpaw was measured with a set of von Frey hairs. […] Thermal paw withdrawal latency was measured using the Hargreaves radiant heat apparatus and averaged over three trials. […] To investigate whether the p38 inhibitor affects established inflammatory pain, SB203580 (1 μg) was intrathecally injected 48 hours after CFA injection. Pain behavior was measured 0.5, 3, and 24 hours after the inhibitor was injected.

A further assay deals with VR1 protein. Briefly: VR1 protein in DRG after CFA inflammation (Western blot, immunohistochemistry). It is filed as in vivo, rat. As to conditions: for induction of VR1 after inflammation: continuous intrathecal infusion via osmotic pump, two days. The protocol:
L4 and L5 DRGs and L4-L5 spinal cord segments were dissected. DRG and transverse spinal cord sections (20 μm) were cut and processed for immunohistochemistry using the previously described ABC method (Ji et al., Nat. Neurosci. 2:1114-1119, 1999), with polyclonal anti-p38 and phospho-p38 (1:300, New England BioLabs) and polyclonal anti-VR1 antibodies (1:5000, Kindly provided by Glaxso Welcome and Dr. David Julius). For colocalization studies, immunofluorescence was performed to analyze the double staining between antibodies reactive with phosphop38 (anti-rabbit, 1:300) and VR1 (anti-guinea pig, 1:3000, Neuromics) or P2X3 (anti-guinea pig, 1:3000, Neuromics) or NeuN (anti-mouse, 1:3000, Chemicon). This double immunofluorescence was performed as previously described (Ji et al., 2001, supra). Briefly, DRG and spinal sections were incubated with a mixture of two primary antibodies overnight at 4° C. and then incubated with a mixture of FITC- and CY3-congugated secondary antibodies (1:300, Jackson immunolab) for two hours at room temperature. A Tyramide Signal Amplification (TSA, NEN) kit was used to perform double staining with two polyclonal rabbit antibodies (phospho p38 and TrkA) as previously reported (Amaya et al., Mol. Cell Neurosci 15:331-342, 2000). The images of immunostained DRG sections were captured with a CCD camera. The intensity of immunostaining was measured with computer-assisted software (IP lab), and the number of immunoreactive neuronal profiles was counted in a blinded fashion. […] Instead, the results provide a way to evaluate differences in staining levels between control and treated animals. To prevent variations due to experimental conditions, the control and treated DRG sections were mounted on the same slides and processed under the same conditions. […]
To determine whether expression of VR1 protein in DRG neurons was induced by peripheral inflammation, the following Western blot analysis was used. […] The density of specific bands was measured and normalized with internal control bands from the loading control. […]

Setting [7] is: intrathecal 30 μg, 48 hours after CFA-induced inflammation.
The mark [8] stands for this setting: intrathecal 2 μg twice a day for three days.
The mark [9] stands for this setting: intrathecal infusion before CFA.
[10] abbreviates: intrathecal infusion before CFA, listed as SB 203580.

In the case of “IL-1ra: recombinant IL-1β receptor antagonist (IL-1ra)”, the “reduction of Cox-2 mRNA levels” value with Cox-2 mRNA [1] (intrathecal 6 μg 30 minutes prior to CFA injection, six hours post-inflammation) was determined as 75%. The “activity-evoked Cox-2 mRNA induction” value in the assay on Cox-2 mRNA [2] was “did not affect”.

For acetyl-Tyr-Val-Ala-Asp-CHO [YVAD], in the assay with PGE2 (intrathecal pretreatment 1 nmole, 12 and 24 hours post-inflammation), the “reduction of the levels of central PGE2” value was determined as 50%. In addition, the “decrease of PGE2 levels in the cerebrospinal fluid” value was 50% in the assay with PGE2 (12 hours post inflammation) and 70% in the assay with PGE2 (24 hours post-inflammation). The compound also came in with a normalizing mechanical sensitivity in [3] (intrathecal 1 nmol, CFA inflammation) of 12 fold. Further, the “thermal withdrawal latency of the CFA inflamed hindpaw” value in [3] (intrathecal 1 nmol, compared with vehicle) is on record as “did not significantly affect”. Further, the “mechanical threshold of the CFA inflamed hindpaw” value in [3] (intrathecal 1 nmol, compared with vehicle, p<0.05) was “increased”. For the same compound, the “block of the induction of spinal Cox-2 mRNA” value with Cox-2 mRNA [1] (30 minute intrathecal pretreatment, 1 nmole (0.5 μg), six hours after peripheral inflammation) is on record as 65%.

As for `CS(=O)(=O)Nc1ccc([N+](=O)[O-])cc1OC1CCCCC1` [NS398], in [3] (setting [7]), the “reduction of mechanical hyperalgesia” value worked out at 4.2 fold and the thermal hyperalgesia result is recorded as “significantly reduced”. The “mechanical or thermal pain sensitivity in naive rats” value in [3] (naive rats) is “did not alter”.

Regarding `COc1cccc(-c2cc(=O)c3ccccc3o2)c1N` [PD98059], the basal pain sensitivity result in assay [4] is given as “no significant change”.

“NGF: nerve growth factor, a known pain mediator, injected intrathecally”: in the assay on p-p38 and VR1 (setting [8]), the “VR1 levels in DRG neurons” value is listed as “increases” and the “p-p38 levels in DRG neurons” value is “increases”. The “p38 activation in adult primary DRG neurons grown in culture” value in the assay on p38 and ERK is “induced”.

Turning to `C[S+]([O-])c1ccc(-c2nc(-c3ccncc3)c(-c3ccc(F)cc3)[nH]2)cc1` (stereo not shown) [SB203580], the “CFA-induced swelling, based on paw thickness” value was “does not change” with CFA-injected paws and “did not reduce” in the assay on CFA-injected paws (listed as SB 203085). Besides, the inflammatory heat hyperalgesia entry in assay [5] is on record as “delayed inhibition”; in assay [6] (intrathecal bolus 1 μg twice a day for two days, first 30 minutes prior to CFA), “decreased”. Moreover, the “NGF-induced VR1 increase” value in the assay with p-p38 and VR1 is “significantly suppressed”; in the assay with p-p38 and VR1 (listed as 203580) it was “blocked”. The established inflammatory pain result in [6] (1 μg intrathecal after CFA, 0.5 hours post-injection) is “did not affect”. Also, the heat hyperalgesia result is “completely reversed” in [6] (1 μg intrathecal after CFA, 24 hours post-injection) and “started to decrease” in assay [6] (1 μg intrathecal after CFA, three hours post-injection). The figures for the mechanical allodynia result in assay [6] (setting [9]) and in assay [6] (setting [10]) were “did not significantly affect” and “did not affect”, respectively. Moreover, the “late phase of inflammation-induced heat hyperalgesia” value is “alleviated” in assay [6] (setting [9]) and “reduced” in assay [6] (setting [10]). Also, the “heat and mechanical sensitivity in non-inflamed rats” value in [6] (non-inflamed rats, intrathecal) is on record as “Neither heat nor mechanical sensitivity in non-inflamed rats was affected”. In assay [6] (six hour time point, intrathecal infusion before CFA), the “early phase of inflammatory pain” value is “did not change”. The “induction of VR1 after inflammation” value in the assay with VR1 protein was “inhibited; also recorded: blocked”; in the assay on VR1 protein (listed as SB 203580), “decreased”. Moreover, the “CFA-induced upregulation of VR1 protein (Western blot)” value with VR1 protein (intrathecal 1 μg twice a day for two days, at two days) was “blocked”.
